Here are results for 12 compounds from ChEMBL document CHEMBL5053510, “Discovery of AS-1763: A Potent, Selective, Noncovalent, and Orally Available Inhibitor of Bruton's Tyrosine Kinase” (J Med Chem, 2021).

SMILES strings stand for the structures.

One may read the IC50 as the midpoint of a concentration-inhibition curve.

For assay [1], the target named is Tyrosine-protein kinase BTK (Homo sapiens, UniProt Q06187). The experiment in a line: Inhibition of human BTK-A using phosphorylated substrate in presence of ATP by microplate reader assay.
Chain of Tyrosine-protein kinase BTK (Q06187 whole entry): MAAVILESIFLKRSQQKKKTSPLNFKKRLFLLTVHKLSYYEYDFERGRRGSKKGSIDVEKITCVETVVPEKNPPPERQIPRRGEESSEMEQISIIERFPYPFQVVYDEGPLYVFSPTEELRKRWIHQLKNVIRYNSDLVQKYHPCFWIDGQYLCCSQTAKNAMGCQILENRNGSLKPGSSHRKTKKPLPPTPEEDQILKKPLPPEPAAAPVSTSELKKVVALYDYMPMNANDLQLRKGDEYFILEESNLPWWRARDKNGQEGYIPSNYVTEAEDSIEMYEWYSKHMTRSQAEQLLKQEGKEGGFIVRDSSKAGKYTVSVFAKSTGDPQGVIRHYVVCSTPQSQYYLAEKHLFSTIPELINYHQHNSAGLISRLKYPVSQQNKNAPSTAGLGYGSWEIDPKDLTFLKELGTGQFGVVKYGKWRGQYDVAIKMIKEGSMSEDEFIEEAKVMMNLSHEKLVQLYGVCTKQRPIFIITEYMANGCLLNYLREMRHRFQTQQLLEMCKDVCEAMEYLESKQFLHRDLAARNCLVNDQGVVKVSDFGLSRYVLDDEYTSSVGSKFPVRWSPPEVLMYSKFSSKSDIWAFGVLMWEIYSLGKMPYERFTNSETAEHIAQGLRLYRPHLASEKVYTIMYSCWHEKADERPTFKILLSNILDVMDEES
For assay [2], the system named is OCI-Ly10. The assay is described as follows: Antiproliferative activity against human OCILY10 cells assessed as reduction in cell proliferation measured after 96 hrs. The note with it: OCI-Ly10, 96 h. Format: functional, cell-based.
In assay [3] the test system is OCI-Ly10. The experiment in a line: Antiproliferative activity against human OCILY10 cells harboring BTK C481S mutant […] gene assessed as reduction in cell viability after 96 hrs. Type of assay: functional, cell-based. The note with it: OCI-Ly10, 96 h.

With `Nc1nc(-c2cccc(-n3ccc4cc(C5CC5)cc(F)c4c3=O)c2CO)c2cc(-c3ccccc3)[nH]c2n1`, the IC50 in assay [1] came to 14 nM.

Consider `Nc1nc(-c2cccc(-n3ccc4cc(C5CC5)cc(F)c4c3=O)c2CO)c2cc(-c3cccnc3)[nH]c2n1`, for which the IC50 in assay [1] amounted to 2.1 nM.

Turning to `Nc1nc(-c2cccc(-n3ccc4cc(C5CC5)cc(F)c4c3=O)c2CO)c2cc(C3=CCN(C(=O)CN4CCOCC4)CC3)[nH]c2n1`, the values for the IC50 in assay [1] and in assay [2] were 0.69 nM and 13 nM, respectively.

For the compound `Nc1nc(-c2cccc(-n3ccc4cc(C5CC5)cc(F)c4c3=O)c2CO)c2cc[nH]c2n1`, in assay [1], the half-inhibitory concentration (IC50) was 51 nM.

Consider `C=CC(=O)N1CCC[C@@H](n2nc(-c3ccc(Oc4ccccc4)cc3)c3c(N)ncnc32)C1` [IBRUTINIB], for which, in assay [3], the IC50 came to 1030 nM.

As for `CN(C)C(=O)N1CC=C(c2cc3c(-c4cccc(-n5ccc6cc(C7CC7)cc(F)c6c5=O)c4CO)nc(N)nc3[nH]2)CC1`, the concentration for half-maximal inhibition (IC50) in assay [1] amounted to 0.54 nM.

Consider `Cc1cc2c(-c3cccc(-n4ccc5cc(C6CC6)cc(F)c5c4=O)c3CO)nc(N)nc2[nH]1`, for which, in assay [1], the half-inhibitory concentration (IC50) was 49 nM.

On to `CN1CCN(C(=O)N2CC=C(c3cc4c(-c5cccc(-n6ccc7cc(C8CC8)cc(F)c7c6=O)c5CO)nc(N)nc4[nH]3)CC2)CC1`, for which the IC50 in assay [1] turned out to be 0.65 nM.

`CC(=O)N1CC=C(c2cc3c(-c4cccc(-n5ccc6cc(C7CC7)cc(F)c6c5=O)c4CO)nc(N)nc3[nH]2)CC1`: the IC50 in assay [1] was found to be 0.71 nM.

In the case of `Nc1nc(-c2cccc(-n3ccc4cc(C5CC5)cc(F)c4c3=O)c2CO)c2cc(-c3ccncc3)[nH]c2n1`, the IC50 in assay [1] stood at 0.14 nM.

Consider `Nc1nc(-c2cccc(-n3ccc4cc(C5CC5)cc(F)c4c3=O)c2CO)c2cc(C3=CCCCC3)[nH]c2n1`, for which, in assay [1], the half-maximal inhibitory concentration (IC50) is 2.6 nM.

For the compound `Nc1nc(-c2cccc(-n3ccc4cc(C5CC5)cc(F)c4c3=O)c2CO)c2cc(C3=CCNCC3)[nH]c2n1`, the IC50 in assay [1] amounted to 0.65 nM.
